Assay results reported in patent US7189751B2, “Oxa(thia)zolidine compounds, process for preparation thereof and anti-inflammatory agents” (Nippon Soda Co., Ltd., priority 2001, dated 2007).

How the values were obtained:
[1] = biological target: T1, IV-cPLA(2) in activated U937 cells (Homo sapiens, UniProt P47712); assay: PLA(2) activity: hydrolysis of bis-BODIPY FL C11-PC in TPA/A23187-activated U937 cells; type: cell-based; conditions: U-937; Concentration 10 μM; inflammatory activated PLA(2) activity, U937 cells
T1 sequence (P47712 1-749): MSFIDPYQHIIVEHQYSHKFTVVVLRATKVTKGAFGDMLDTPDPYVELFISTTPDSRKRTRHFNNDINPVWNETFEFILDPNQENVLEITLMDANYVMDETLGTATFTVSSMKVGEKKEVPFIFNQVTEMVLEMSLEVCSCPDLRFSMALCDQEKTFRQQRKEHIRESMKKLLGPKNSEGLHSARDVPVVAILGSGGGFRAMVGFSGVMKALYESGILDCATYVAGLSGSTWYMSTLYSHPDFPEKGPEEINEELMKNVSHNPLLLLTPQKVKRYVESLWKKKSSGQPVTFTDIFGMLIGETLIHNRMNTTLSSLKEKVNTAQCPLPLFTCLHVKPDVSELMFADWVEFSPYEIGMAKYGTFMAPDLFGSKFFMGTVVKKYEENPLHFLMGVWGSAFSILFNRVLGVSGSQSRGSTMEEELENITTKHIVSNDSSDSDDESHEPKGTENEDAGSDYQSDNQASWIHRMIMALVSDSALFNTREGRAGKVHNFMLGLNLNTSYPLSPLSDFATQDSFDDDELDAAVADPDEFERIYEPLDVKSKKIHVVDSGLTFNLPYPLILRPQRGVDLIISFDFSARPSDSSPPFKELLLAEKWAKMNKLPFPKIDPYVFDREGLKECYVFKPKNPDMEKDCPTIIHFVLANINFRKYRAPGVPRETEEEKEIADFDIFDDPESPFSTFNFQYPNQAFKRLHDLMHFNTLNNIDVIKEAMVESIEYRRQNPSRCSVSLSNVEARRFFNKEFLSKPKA
Description: The PLA(2) activity was measured by quantitatively analyzing the fluorescent product of hydrolysis from 1,2-bis-(4,4-difluoro-5,7-dimethyl-4-bora-3a,4a-diaza-s-indecene-3-undecanoyl)-sn-glycero-3-phosphocholine (hereinafter referred to bis-BODIPY®FL C11-PC, Molecular probes, Inc., B-7701) using activated U937 cells (human monoblastic lymphoma cell line) by inflammatory stimulus (Meshulam, T. et al., The journal of Biological Chemistry 267 (30): 21465–21470 (1992); and Solito, E. et al., British Journal of Pharmacology 124: 1675–1683(1998).). The substrate bis-BODIPY®FL C11-PC is incorporated into cellular membranes, the proximity of the BODIPY®FL fluorophores on adjacent phospholipid acyl chains causes fluorescence self-quenching. Separation of the fluorophores upon hydrolytic cleavage of one of the acyl chains by PLA(1) or the PLA(2) results in increased fluorescence. […]
The test compound was dissolved with DMSO at 30 mM, and the solution diluted with either DMSO or the Assay medium before addition into the reaction mixture. […] The increased fluorescence of the hydrolysis product by the enzyme was determined by measuring the fluorescence emission intensity at 535 nm with excitation at 485 nm from the top side of each plate at 37° C., using a Multi Functional Microplate Reader SPECTRA FLUOR PLUS (TECAN Austria GmbH). […]

[2] = system: acetic acid induced writhes; assay: Acetic acid writhing; type: in vivo, mouse
Description: Pharmacological Test Example 4: Acetic Acid Wirthing
This test was carried out referring to the method of Inoue, K., Motonaga, A. & Nishimura, T (Arzneimittel Forshung/Drug Research, 41 (1): 235–239 (1991)). More specifically, 7.5 mL/kg of 0.9% acetic acid solution was injected intraperitoneally into an ICR-strain male mouse (5 to 7 weeks old), and the induced writhes (characteristic behaviors of convulsive contracting the abdomen, twisting the body and/or extending the legs) were observed. Number of writhes of each mouse was measured during 10 to 20 min. period after acetic acid administration. […] The analgesic activity of the compounds according to the present invention was evaluated on the basis of the degree of inhibiting the number writhes by the administration of the compounds. As the positive control, indomethacin or aspirin was administrated. The analgesic activity of the compounds according to the present invention measured in this test were exemplified in Table 7.

inhibition at 10 µM [1]: 99%
SMILES: CCOC(=O)C(=C1N[C@@H](C)[C@H](c2ccc(Cl)cc2)S1)[N+](=O)[O-] (relative stereo) [Compound 2-29, Trans-5-(4-chlorophenyl)-4-methyl-2-(1-ethoxycarbonyl-1-nitromethylene)-thiazolidine]
Number of writhes (Mean ± S.E.) ([2]; i.p. 1 mg/kg, 30 min before, vehicle i.p. 25.2 ± 2.2): 5.5 ± 1.9
Number of writhes (Mean ± S.E.) ([2]; p.o. 10 mg/kg, 120 min before, vehicle p.o. 23.5 ± 3.1): 1.5 ± 0.7
